Converted amounts (≈) assume the structure as drawn.
How the values were obtained:
[1] = tested on: C. parapsilosis ATCC 22019; experiment: antifungal activity (disc-diffusion, MIC, MFC); assay type: cell-based, Candida parapsilosis; conditions: Lodderomyces parapsilosis, ATCC22019; for MIC: fluconazole by Etest; for zone of inhibition at 0.4 mg/disc: 0.4 mg per disc, 9 mm disc (fluconazole 0.025 mg, 6 mm disc), - no zone, read-out: Diameter of inhibition zone
Procedure, shortened: (§1)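 First, discs bearing 0.4 mg of compound in DMSO were tested for growth inhibition. Next, MIC was determined, followed by MBC for bacteria or MFC for yeasts, all per EUCAST and CLSI.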

[2] = MTT-based viability assay; assay type: cell-based; conditions: human, MRC-5 human fibroblasts, 72 h, read-out: Viability of MRC-5 cells (% of viable cells ± SD)
Procedure, shortened: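 MRC-5 human fibroblasts grown in MEME with 10% FBS at 37 °C, 5% CO2, tested by MTT with absorbance read at 570 nm. Viability given as percent of untreated control cells, in triplicate.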

[3] = tested on: B. subtilis ATCC 6633; experiment: direct antimicrobial activity (disc-diffusion); assay type: cell-based; conditions: Bacillus subtilis, ATCC6633; 0.4 mg per disc, 9 mm disc (linezolid 0.03 mg, 6 mm disc); - no zone; read-out: Diameter of inhibition zone
Procedure, shortened: as §1

[4] = tested on: K. pneumoniae ATCC 700603 ESBL-positive; experiment: combination disc test CDT-ESBL; assay type: cell-based; conditions: Klebsiella pneumoniae, ATCC700603, read-out: Diameter of inhibition zone, CAZ-30 disc with agent; for zone of inhibition at 300 µg/disc: agent 0.3 mg per disc; for zone of inhibition at 100 µg/disc: agent 0.1 mg per disc
[5] = tested on: E. coli 77 CMY-2-positive; experiment: checkerboard microdilution, antibiotic plus tested agent; assay type: cell-based, Escherichia coli
Procedure, shortened: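 β-lactam 1–64 mg/L × agent/PBA 4–16 mg/L checkerboard; meropenem vs carbapenemase producers, ceftazidime vs AmpC producer; imipenem, ertapenem added for selected agents. Readout: combination MICs, FICI (average and lowest); off-scale MICs taken as next doubling.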

[6] = tested on: C. tropicalis ATCC 750; experiment: antifungal activity (disc-diffusion, MIC, MFC); assay type: cell-based; conditions: Candida tropicalis, ATCC750; fluconazole by Etest
Procedure, shortened: as §1

[7] = tested on: S. cerevisiae ATCC 9763; experiment: antifungal activity (disc-diffusion, MIC, MFC); assay type: cell-based; conditions: Saccharomyces cerevisiae, ATCC9763; for MIC: fluconazole by Etest; for zone of inhibition at 0.4 mg/disc: 0.4 mg per disc, 9 mm disc (fluconazole 0.025 mg, 6 mm disc), - no zone, read-out: Diameter of inhibition zone
Procedure, shortened: as §1

[8] = tested on: C. tropicalis IBA 171; experiment: antifungal activity (disc-diffusion, MIC, MFC); assay type: cell-based; conditions: Candida tropicalis, IBA171; fluconazole by Etest
Procedure, shortened: as §1

[9] = tested on: C. albicans ATCC 90028; experiment: antifungal activity (disc-diffusion, MIC, MFC); assay type: cell-based; conditions: Candida albicans, ATCC90028; fluconazole by Etest
Procedure, shortened: as §1

[10] = tested on: C. guilliermondii IBA 155; experiment: antifungal activity (disc-diffusion, MIC, MFC); assay type: cell-based, Candida guilliermondii; conditions: Meyerozyma guilliermondii, IBA155; for zone of inhibition at 0.4 mg/disc: 0.4 mg per disc, 9 mm disc (fluconazole 0.025 mg, 6 mm disc), - no zone, read-out: Diameter of inhibition zone; for MIC: fluconazole by Etest
Procedure, shortened: as §1

[11] = tested on: E. faecalis ATCC 29212; experiment: direct antimicrobial activity (disc-diffusion, MIC, MBC); assay type: cell-based; conditions: Enterococcus faecalis, ATCC29212; for zone of inhibition at 0.4 mg/disc: 0.4 mg per disc, 9 mm disc (linezolid 0.03 mg, 6 mm disc), - no zone, read-out: Diameter of inhibition zone
Procedure, shortened: as §1

[12] = tested on: S. aureus ATCC 43300 MRSA; experiment: as above; assay type: cell-based; conditions: Staphylococcus aureus; for zone of inhibition at 0.4 mg/disc: 0.4 mg per disc, 9 mm disc (linezolid 0.03 mg, 6 mm disc), - no zone, read-out: Diameter of inhibition zone
Procedure, shortened: as §1

[13] = tested on: S. epidermidis ATCC 12228; experiment: as above; assay type: cell-based; conditions: Staphylococcus epidermidis, ATCC12228; for zone of inhibition at 0.4 mg/disc: 0.4 mg per disc, 9 mm disc (linezolid 0.03 mg, 6 mm disc), - no zone, read-out: Diameter of inhibition zone
Procedure, shortened: as §1

[14] = tested on: E. faecium ATCC 6057; experiment: as above; assay type: cell-based; conditions: Enterococcus faecium, ATCC6057; for zone of inhibition at 0.4 mg/disc: 0.4 mg per disc, 9 mm disc (linezolid 0.03 mg, 6 mm disc), - no zone, read-out: Diameter of inhibition zone
Procedure, shortened: as §1

[15] = tested on: S. aureus ATCC 6538P; experiment: as above; assay type: cell-based; conditions: Staphylococcus aureus, ATCC6538P; for zone of inhibition at 0.4 mg/disc: 0.4 mg per disc, 9 mm disc (linezolid 0.03 mg, 6 mm disc), - no zone, read-out: Diameter of inhibition zone
Procedure, shortened: as §1

[16] = tested on: E. coli 77 CMY-2-positive; experiment: combination disc test CDT-AmpC; assay type: cell-based; conditions: Escherichia coli, read-out: Diameter of inhibition zone, CAZ-30 disc with agent; for zone of inhibition at 300 µg/disc: agent 0.3 mg per disc; for zone of inhibition at 100 µg/disc: agent 0.1 mg per disc
[17] = tested on: K. pneumoniae ATCC BAA 1705 KPC-2-positive; experiment: combination disc test CDT-KPC; assay type: cell-based; conditions: Klebsiella pneumoniae, BAA1705, read-out: Diameter of inhibition zone, MEM-10 disc with agent; for zone of inhibition at 300 µg/disc: agent 0.3 mg per disc; for zone of inhibition at 100 µg/disc: agent 0.1 mg per disc
[18] = tested on: P. aeruginosa MUW 700 cAmpC-positive; experiment: combination disc test CDT-AmpC; assay type: cell-based; conditions: Pseudomonas aeruginosa, read-out: Diameter of inhibition zone, CAZ-30 disc with agent; for zone of inhibition at 300 µg/disc: agent 0.3 mg per disc; for zone of inhibition at 100 µg/disc: agent 0.1 mg per disc

| Structure (SMILES) | MIC [1] [µg/mL] | viability at 72 h, 12.5 mg/L [2] [%] | viability at 72 h, 25 mg/L [2] [%] | viability at 72 h, 50 mg/L [2] [%] | zone of inhibition at 0.4 mg/disc [3] [mm] | Average FICI with ceftazidime [5] | The lowest FICI with ceftazidime [5] | MIC [6] [µg/mL] | MIC [7] [µg/mL] | MIC [8] [µg/mL] | MIC [9] [µg/mL] | MIC [10] [µg/mL] | MIC [11] [µg/mL] | MIC [12] [µg/mL] | MIC [13] [µg/mL] | zone of inhibition at 0.4 mg/disc [13] [mm] | MIC [14] [µg/mL] | MIC [15] [µg/mL] | zone of inhibition at 0.4 mg/disc [15] [mm] | zone of inhibition at 100 µg/disc [4] [mm] | further results |
| --- | --- | --- | --- | --- | --- | --- | --- | --- | --- | --- | --- | --- | --- | --- | --- | --- | --- | --- | --- | --- | --- |
| OB(O)c1cccc(B(O)O)c1 [2a] | > 400 | 94.4 ± 2.2 | 75.2 ± 10.3 | 73.1 ± 13.6 | 18 | 0.22 | 0.15 | > 400 | > 400 | 400 (≈ 2410 µM) | 400 (≈ 2410 µM) | > 400 | 200 (≈ 1210 µM) | 400 (≈ 2410 µM) | 200 (≈ 1210 µM) | 21 | > 400 | 100 (≈ 603 µM) | 20 |  | zone of inhibition at 300 µg/disc [4]: 16 mm; zone of inhibition at 0.4 mg/disc [10]: 14 mm; zone of inhibition at 300 µg/disc [16]: 22 mm; zone of inhibition at 300 µg/disc [17]: 15 mm; zone of inhibition at 300 µg/disc [18]: 21 mm |
| OB(O)c1ccc(B(O)O)cc1 [1a] | > 400 |  |  |  | 17 | 0.30 | 0.15 | > 400 | 400 (≈ 2410 µM) | > 400 | > 400 | > 400 | 200 (≈ 1210 µM) | 400 (≈ 2410 µM) | 400 (≈ 2410 µM) | 14 | 400 (≈ 2410 µM) | 200 (≈ 1210 µM) |  |  | viability at 72 h, 16 mg/L [2]: 113 ± 12.5%; viability at 72 h, 32 mg/L [2]: 103 ± 11.8%; viability at 72 h, 64 mg/L [2]: 89.9 ± 11.4%; zone of inhibition at 300 µg/disc [4]: 17 mm; zone of inhibition at 300 µg/disc [16]: 21 mm; zone of inhibition at 300 µg/disc [17]: 19 mm; zone of inhibition at 300 µg/disc [18]: 23 mm |
| OB(O)c1cc(F)c(B(O)O)cc1F [1e] | > 400 | 107 ± 3.3 | 105 ± 10 | 117 ± 4.6 | 28 | 0.17 | 0.14 | > 400 | 400 (≈ 1980 µM) | > 400 | > 400 | > 400 | 200 (≈ 991 µM) | 25 (≈ 124 µM) | 25 (≈ 124 µM) | 21 | 100 (≈ 496 µM) | 12.5 (≈ 62 µM) | 20 | 15 | zone of inhibition at 0.4 mg/disc [1]: 15 mm; zone of inhibition at 0.4 mg/disc [7]: 13 mm; zone of inhibition at 0.4 mg/disc [10]: 16 mm; zone of inhibition at 0.4 mg/disc [11]: 15 mm; zone of inhibition at 0.4 mg/disc [12]: 26 mm; zone of inhibition at 0.4 mg/disc [14]: 14 mm; zone of inhibition at 100 µg/disc [16]: 20 mm; zone of inhibition at 100 µg/disc [17]: 11 mm; zone of inhibition at 100 µg/disc [18]: 18 mm |
| OB(O)c1cc(F)c(B(O)O)c(F)c1 [1d] | 200 (≈ 991 µM) | 111.6 ± 1.1 | 104 ± 8.9 | 83.3 ± 1.2 | 15 | 0.23 | 0.17 | 400 (≈ 1980 µM) | 200 (≈ 991 µM) | 200 (≈ 991 µM) | 200 (≈ 991 µM) | 200 (≈ 991 µM) | > 400 | 200 (≈ 991 µM) | 25 (≈ 124 µM) | 21 | > 400 | 25 (≈ 124 µM) |  | 14 | zone of inhibition at 0.4 mg/disc [1]: 14 mm; zone of inhibition at 0.4 mg/disc [7]: 13 mm; zone of inhibition at 0.4 mg/disc [10]: 16 mm; zone of inhibition at 100 µg/disc [16]: 20 mm; zone of inhibition at 100 µg/disc [17]: 12 mm; zone of inhibition at 100 µg/disc [18]: 17 mm |
| OB(O)c1ccc(B(O)O)c(F)c1F [1c] | > 400 | 112 ± 3.8 | 103 ± 3 | 96.7 ± 3.3 | 28 | 0.19 | 0.14 | > 400 | 200 (≈ 991 µM) | > 400 | > 400 | > 400 | 200 (≈ 991 µM) | 50 (≈ 248 µM) | 50 (≈ 248 µM) | 28 | 200 (≈ 991 µM) | 25 (≈ 124 µM) | 22 | 14 | zone of inhibition at 0.4 mg/disc [11]: 16 mm; zone of inhibition at 0.4 mg/disc [12]: 22 mm; zone of inhibition at 0.4 mg/disc [14]: 15 mm; zone of inhibition at 100 µg/disc [16]: 20 mm; zone of inhibition at 100 µg/disc [17]: 6 mm; zone of inhibition at 100 µg/disc [18]: 18 mm |
| OB(O)c1ccccc1B(O)O [3a, phenylene-1,2-diboronic acid] | 25 (≈ 151 µM) |  |  |  | 24 | 0.44 | 0.29 | > 400 | 25 (≈ 151 µM) | > 400 | > 400 | > 400 | 400 (≈ 2410 µM) | 400 (≈ 2410 µM) | 200 (≈ 1210 µM) | 20 | 50 (≈ 302 µM) | 200 (≈ 1210 µM) |  |  | viability at 72 h, 16 mg/L [2]: 110 ± 9.3%; viability at 72 h, 32 mg/L [2]: 106 ± 10.6%; viability at 72 h, 64 mg/L [2]: 76.2 ± 4.2%; zone of inhibition at 300 µg/disc [4]: 18 mm; zone of inhibition at 0.4 mg/disc [14]: 16 mm; zone of inhibition at 300 µg/disc [16]: 23 mm; zone of inhibition at 300 µg/disc [17]: 17 mm; zone of inhibition at 300 µg/disc [18]: 22 mm |
| OB(O)c1cc(F)c(F)c(B(O)O)c1 [2d] | > 400 | 107 ± 7.6 | 88 ± 4.3 | 75.2 ± 9.4 | 15 | 0.19 | 0.14 | > 400 | > 400 | > 400 | 400 (≈ 1980 µM) | 400 (≈ 1980 µM) | 200 (≈ 991 µM) | 100 (≈ 496 µM) | 50 (≈ 248 µM) | 12 | 200 (≈ 991 µM) | 50 (≈ 248 µM) | 22 | 13 | zone of inhibition at 0.4 mg/disc [11]: 14 mm; zone of inhibition at 0.4 mg/disc [12]: 19 mm; zone of inhibition at 0.4 mg/disc [14]: 14 mm; zone of inhibition at 100 µg/disc [16]: 21 mm; zone of inhibition at 100 µg/disc [17]: 6 mm; zone of inhibition at 100 µg/disc [18]: 18 mm |

— publication PMC10648349, “Aromatic Diboronic Acids as Effective KPC/AmpC Inhibitors” (Molecules, 2023)
